Measured values from PubChem BioAssay AID720578 (The Scripps Research Institute Molecular Screening Center, 2013).
Where “and” joins values, the source holds several entries; their conditions need not be identical. Equal values may be shown once. Calls of active or inactive are those of the source. How the calls were made is not given here.

Target: Crimean-Congo hemorrhagic fever virus L protein viral ovarian tumor (vOTU) protease domain
Test: CCHFV vOTU protease inhibitor potency, dose response, biochemical, fluorescence, Pep-AMC substrate (AID 720578)
Conditions: recombinant CCHFV vOTU, Pep-AMC fluorescence cleavage

Compound	IC50
S=C(Nc1ccc(Cl)cc1)Nc1cccc2cnccc12	6.44 µM
O=S(=O)(Nc1cc2nc3ccccc3nc2n1Cc1ccccc1)c1ccc(Cl)cc1	2.57 µM
COc1cc(NC(=O)COC(=O)c2ccc([N+](=O)[O-])s2)cc(OC)c1OC	6.6 µM
Cc1c(C=O)c(Cl)n(C)c(=O)c1C#N	inactive
Cc1ccc2c(c1C)-c1c(ccc(C)c1C)C(=O)C2=O	7.79 µM
O=[N+]([O-])c1ccccc1-c1ccc(C(=S)N2CCCC2)o1	inactive
Cc1coc2c(O)cc3c(c12)OC1(N2CCCCC2)C(=O)NCCCC31 (stereo unspecified)	inactive
COC1=CC(=O)c2c(ccc3ncnc(N)c23)C1=O	0.396 µM
O=C(/C=C/c1ccc(O)cc1)c1ccc(NC2=C(N3CCCCC3)C(=O)c3ccccc3C2=O)cc1	3.35 µM
O=S(=O)(Nc1c(S(=O)(=O)c2ccccc2)c2nc3ccccc3nc2n1C1CCCCC1)c1ccccc1	> 115 µM (inactive)
O=S(=O)(N=C1C=CC(=NS(=O)(=O)c2ccccc2)c2ccccc21)c1ccccc1	inactive
CC(=O)N(C1=C(Cl)C(=O)c2ccccc2C1=O)c1ccc(C(=O)O)cc1	2.74 µM
C[n+]1c2cc(N)ccc2cc2ccc(N)cc21	0.945 µM and 3.14 µM
O=C(c1ccccc1)c1coc2c1C(=O)c1ccccc1C2=O	6.61 µM
CC(=O)N(/N=C1\Sc2ccccc2C1=O)c1ccccc1C	inactive
COCCN1C=C2C(=O)C(C)(OC(=O)C3CCCC3)C(=O)C(c3ccccc3)=C2C=C1CCCC(=O)OC (stereo unspecified)	inactive
Cc1cc(NC2=CC(=O)C(=O)c3ccccc32)no1	5.6 µM
COc1cccc2c1C(=O)c1c(O)c3c(c(O)c1C2=O)C[C@@](O)(C(=O)CO)C[C@@H]3O[C@H]1C[C@H](N)[C@H](O)[C@H](C)O1	inactive
CN(C)CCCNc1cc(O)c2ncccc2c1	5.13 µM
Cc1oc2c(c1C(=O)O)C(=O)c1ccccc1C2=O	9.12 µM
Nc1scc2c(C(=O)N/N=C/c3ccc(Cl)cc3)nn(-c3ccccc3)c(=O)c12	inactive
CCCCCCCCCCCCCCCC[n+]1ccccc1	inactive
CC(=O)c1ccc(NC(=S)Nc2cccc3cnccc23)cc1	6.84 µM
Cc1ccc(NC2=CC(=O)C(=O)c3ccccc32)cc1	7.14 µM
COc1ccc(/C=N/NC(=O)c2nn(-c3ccc(Cl)cc3)c(=O)c3c(N)scc23)cc1	inactive
CCc1ccc(S(=O)(=O)Nc2cc(SCC(=O)O)c(O)c3ccccc23)cc1	7.64 µM

Compound	IC50
O=C1C=C(N2CC2)c2ccccc2C1=O	2.73 µM
COc1ccccc1NC(=O)COC(=O)c1ccc([N+](=O)[O-])s1	9.94 µM
O=C1Cc2ccccc2C(=O)N1Cc1ccccc1	1.28 µM
C=CCN(CC=C)C(=S)Nc1ccc2nsnc2c1	inactive
O=C(O)c1cccc(NC2=C(n3nnc4ccccc43)C(=O)c3ccccc3C2=O)c1	4.76 µM
CCc1ccc(S(=O)(=O)/N=C2\C=C(Nc3cccc(C(=O)O)c3)C(=O)c3ccccc32)cc1	0.833 µM
COc1ccc(NC(=S)Nc2ccc3nsnc3c2)cc1	6.79 µM
O=C1Cc2ccccc2C(=O)N1	0.396 µM
O=C1NNC(c2ccccc2)=N/C1=C\c1ccccc1Cl	inactive
O=[N+]([O-])c1c(Nc2ccccn2)cc(Cl)c2nonc12	inactive
CCOC(=O)C1=C(COC(=O)c2ccc([N+](=O)[O-])s2)NC(=O)NC1C (stereo unspecified)	7.84 µM
NC1=C(Cl)C(=O)c2ccc(S(N)(=O)=O)cc2C1=O	0.127 µM
S=C(Nc1ccc2nsnc2c1)N1CCCCCC1	inactive
CCN(CC)CCCC(C)n1c2nc(=O)[nH]c(=O)c-2nc2cc(Cl)ccc21 (stereo unspecified)	2.5 µM
CC1OC2CC(=O)OC2C2=C1C(=O)c1c(O)cccc1C2=O (stereo unspecified)	3.45 µM
COc1cc(C(=O)c2nccc3cc(OC)c(OC)cc23)c([N+](=O)[O-])cc1OC	1.05 µM
CC(=O)NC1=C(N(C)C2CCS(=O)(=O)C2)C(=O)c2ccccc2C1=O (stereo unspecified)	8.88 µM
COc1cc(NCCCCCCN)c2ncccc2c1OC	3.65 µM
CCOC(=O)c1cc2c(ccn2C)n1Cc1ccccc1C	> 115 µM (inactive)
NS(=O)(=O)c1ccc(NC(=O)COC(=O)c2ccc([N+](=O)[O-])s2)cc1	8.31 µM
O=C(O)c1ccc(NC2=C(n3nnc4ccccc43)C(=O)c3ccccc3C2=O)cc1	4.59 µM
O=S(=O)(Nc1cc(Sc2ncn[nH]2)c(O)c2ccccc12)c1ccccc1	0.708 µM
O=C1C(Cl)=C(NCCCO)C(=O)c2ccccc21	inactive
CC(=O)[C@H]1[C@@H]2C(=O)N(c3cccc(Cl)c3)C(=O)[C@@H]2[C@H]2c3ccccc3C=CN21	inactive
CCC(COC)Oc1cc(NCc2ccccc2)c2ncn(C(C)C)c2c1 (stereo unspecified)	5.43 µM
